ChEMBL document CHEMBL6178017, “Intercepting the Downstream of the Estrogen Receptor Signaling Pathway: Discovery of a Potent and Efficient SRC-3 PROTAC Degrader for Overcoming Endocrine Resistance Breast Cancer” (J Med Chem, 2025)
Activity calls are given as the source filed them. The calls are words filed in the database; no cut-off is given here.

Assays:
[1] = target: T1, von Hippel-Lindau disease tumor suppressor/Nuclear receptor coactivator 3 (Homo sapiens) (UniProt Q9Y6Q9+P40337); test: PROTAC activity at VHL/SRC-3 in human MCF7 cells assessed as induction of SRC-3 degradation at 1 uM incubated for 24 hrs by immunoblot analysis relative to control; assay type: cell-based
[2] = test system: MCF7; test: Antiproliferative activity against human MCF7 cells assessed as inhibition of cell growth by CCK8 assay; assay type: functional, cell-based
[3] = test system: MCF7; test: Antiproliferative activity against human MCF7 cells harboring ER-alpha Y537S mutant assessed as inhibition of cell growth by CCK8 assay; assay type: functional, cell-based
[4] = test system: MCF7; test: Antiproliferative activity against human MCF7 cells harboring ER-alpha D538G mutant assessed as inhibition of cell growth by CCK8 assay; assay type: functional, cell-based
[5] = test system: MCF-10A; test: Cytotoxicity against human MCF-10A cells assessed as cell growth by CCK-8 assay; assay type: toxicity, cell-based
[6] = Antiproliferative activity against tamoxifen-resistant human LCC2 cells assessed as inhibition of cell growth by CCK8 assay; assay type: functional, cell-based
[7] = target: T1, von Hippel-Lindau disease tumor suppressor/Nuclear receptor coactivator 3 (Homo sapiens); test: PROTAC activity at VHL/SRC-3 in human MCF7 cells assessed as induction of […] degradation at 1 uM incubated for 24 hrs by immunoblot analysis relative to control; assay type: cell-based
[8] = test system: Tamoxifen-resistant LCC2 cell; test: Antitumor activity against tamoxifen-resistant human LCC2 cells xenografted in Balb/c mouse assessed as inhibition of tumor growth at 3 uM/Kg, ip administered once every 2 days for 23 days; assay type: functional, organism-based; conditions: time 23.0 day
[9] = target: T2, Protein cereblon/Nuclear receptor coactivator 3 (Homo sapiens, UniProt Q9Y6Q9+Q96SW2); test: PROTAC activity at CRBN/SRC-3 in human MCF7 cells assessed as induction of ER-alpha degradation at 1 uM incubated for 24 hrs by immunoblot analysis relative to control; assay type: cell-based
[10] = target: T2, Protein cereblon/Nuclear receptor coactivator 3; test: PROTAC activity at CRBN/SRC-3 in human MCF7 cells assessed as induction of SRC-3 degradation at 1 uM incubated for 24 hrs by immunoblot analysis relative to control; assay type: cell-based
[11] = target: T2, Protein cereblon/Nuclear receptor coactivator 3; test: PROTAC activity at CRBN/SRC-3 in tamoxifen-resistant human LCC2 cells assessed as maximal induction of SRC-3 degradation at 1 uM incubated for 36 hrs by immunoblot analysis; assay type: cell-based; conditions: Tamoxifen-resistant LCC2 cell
[12] = target: T2, Protein cereblon/Nuclear receptor coactivator 3; test: PROTAC activity at CRBN/SRC-3 in human MCF7 cells assessed as maximal induction of SRC-3 degradation at 1 uM incubated for 36 hrs by immunoblot analysis; assay type: cell-based
[13] = Half life of the compound in human plasma by LC-MS/MS analysis; assay type: ADME, cell-free
[14] = test system: MCF7; test: Induction of SRC-3 degradation in human MCF7 cells at 1 uM incubated for 24 hrs by immunoblot analysis relative to control; assay type: cell-based
[15] = Metabolic stability of the compound in human plasma measured after 2 hrs by LC-MS/MS analysis; assay type: ADME, cell-free; conditions: read-out: Stability
[16] = test system: MCF7; test: Induction of ER-alpha degradation in human MCF7 cells at 1 uM incubated for 24 hrs by immunoblot analysis relative to control; assay type: cell-based
[17] = test system: Mus musculus; test: In vivo PROTAC activity at CRBN/SRC-3 in Balb/c mouse xenografted with tamoxifen-resistant human LCC2 cells assessed as induction of SRC-3 degradation in tumor tissues at 5 uM/Kg, ip administered once every 2 days for 23 days and measured on day 25 by western blot analysis; assay type: functional, organism-based; conditions: time 25.0 day
[18] = Induction of apoptosis in tamoxifen-resistant human LCC2 cells assessed as viable cells incubated for 48 hrs by AnnexinV-FITC/PI staining based flow cytometry (reference value: 88.09%); assay type: functional, Tamoxifen-resistant LCC2 cell
[19] = Induction of apoptosis in tamoxifen-resistant human LCC2 cells assessed as late apoptotic cells incubated for 48 hrs by AnnexinV-FITC/PI staining based flow cytometry (reference value: 4.83%); assay type: functional, Tamoxifen-resistant LCC2 cell
[20] = Induction of apoptosis in tamoxifen-resistant human LCC2 cells assessed as early apoptotic cells incubated for 48 hrs by AnnexinV-FITC/PI staining based flow cytometry (reference value: 5.92%); assay type: functional, Tamoxifen-resistant LCC2 cell
[21] = Induction of apoptosis in tamoxifen-resistant human LCC2 cells assessed as necrotic cells incubated for 48 hrs by AnnexinV-FITC/PI staining based flow cytometry (reference value: 1.16%); assay type: functional, Tamoxifen-resistant LCC2 cell
[22] = test system: LNCaP; test: Antiproliferative activity against human LNCaP cells assessed as inhibition of cell growth by CCK-8 assay; assay type: functional, cell-based

T1 sequence (P40337 whole entry, looked up): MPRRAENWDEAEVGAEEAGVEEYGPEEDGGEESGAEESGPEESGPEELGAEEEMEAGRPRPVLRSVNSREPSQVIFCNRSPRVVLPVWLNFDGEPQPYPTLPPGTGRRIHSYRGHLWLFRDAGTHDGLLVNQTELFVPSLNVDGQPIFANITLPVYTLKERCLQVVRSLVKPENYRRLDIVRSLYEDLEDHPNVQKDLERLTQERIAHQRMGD
T1 sequence (Q9Y6Q9 whole entry, looked up): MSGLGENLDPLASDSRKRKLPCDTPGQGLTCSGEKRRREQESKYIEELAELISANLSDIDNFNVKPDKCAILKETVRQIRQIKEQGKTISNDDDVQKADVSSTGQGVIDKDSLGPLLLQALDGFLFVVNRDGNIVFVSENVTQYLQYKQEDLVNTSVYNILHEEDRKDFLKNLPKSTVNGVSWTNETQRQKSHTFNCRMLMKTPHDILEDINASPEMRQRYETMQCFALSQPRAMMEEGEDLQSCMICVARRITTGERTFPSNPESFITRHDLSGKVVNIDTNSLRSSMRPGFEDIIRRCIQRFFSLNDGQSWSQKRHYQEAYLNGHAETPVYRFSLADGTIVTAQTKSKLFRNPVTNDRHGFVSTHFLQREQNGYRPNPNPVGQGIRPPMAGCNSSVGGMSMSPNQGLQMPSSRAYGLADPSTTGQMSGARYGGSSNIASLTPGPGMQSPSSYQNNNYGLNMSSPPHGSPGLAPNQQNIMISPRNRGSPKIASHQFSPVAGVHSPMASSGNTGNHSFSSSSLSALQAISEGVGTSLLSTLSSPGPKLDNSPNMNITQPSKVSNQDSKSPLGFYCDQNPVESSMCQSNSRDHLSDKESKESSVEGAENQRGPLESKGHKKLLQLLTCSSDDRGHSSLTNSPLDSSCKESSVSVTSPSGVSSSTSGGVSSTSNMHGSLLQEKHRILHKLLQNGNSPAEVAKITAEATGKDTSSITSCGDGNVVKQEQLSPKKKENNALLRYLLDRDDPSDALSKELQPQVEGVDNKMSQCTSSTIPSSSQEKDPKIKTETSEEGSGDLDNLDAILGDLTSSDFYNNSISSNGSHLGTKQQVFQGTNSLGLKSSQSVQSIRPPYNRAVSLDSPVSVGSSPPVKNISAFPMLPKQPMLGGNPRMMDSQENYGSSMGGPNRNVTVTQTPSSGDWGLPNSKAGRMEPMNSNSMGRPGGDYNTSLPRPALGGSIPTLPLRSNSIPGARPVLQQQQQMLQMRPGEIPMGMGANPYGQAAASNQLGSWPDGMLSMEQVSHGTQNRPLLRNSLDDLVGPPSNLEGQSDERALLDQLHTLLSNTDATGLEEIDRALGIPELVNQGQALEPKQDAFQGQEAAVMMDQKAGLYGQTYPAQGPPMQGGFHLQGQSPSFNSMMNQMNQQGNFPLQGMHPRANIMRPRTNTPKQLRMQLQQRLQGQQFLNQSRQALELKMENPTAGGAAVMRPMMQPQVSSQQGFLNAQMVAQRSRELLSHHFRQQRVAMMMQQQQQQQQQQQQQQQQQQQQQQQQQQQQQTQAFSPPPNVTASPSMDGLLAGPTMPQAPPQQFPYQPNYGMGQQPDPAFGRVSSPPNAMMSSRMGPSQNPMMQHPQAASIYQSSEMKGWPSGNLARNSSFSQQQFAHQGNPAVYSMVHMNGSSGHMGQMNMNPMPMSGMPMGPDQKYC
T2 sequence (Q96SW2 whole entry partner): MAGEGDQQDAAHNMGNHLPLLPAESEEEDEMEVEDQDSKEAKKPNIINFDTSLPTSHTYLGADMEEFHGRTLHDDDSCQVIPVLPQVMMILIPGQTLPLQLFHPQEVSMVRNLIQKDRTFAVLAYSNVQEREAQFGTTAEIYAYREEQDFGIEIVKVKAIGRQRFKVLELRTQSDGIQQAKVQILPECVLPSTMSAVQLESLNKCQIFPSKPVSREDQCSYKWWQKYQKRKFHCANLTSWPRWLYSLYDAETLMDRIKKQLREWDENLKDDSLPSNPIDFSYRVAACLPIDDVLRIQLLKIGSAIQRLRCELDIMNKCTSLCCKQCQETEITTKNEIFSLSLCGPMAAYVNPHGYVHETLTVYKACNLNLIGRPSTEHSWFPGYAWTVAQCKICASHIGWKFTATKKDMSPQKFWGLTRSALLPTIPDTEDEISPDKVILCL
T2 sequence (Q9Y6Q9 2-1424 limits assumed): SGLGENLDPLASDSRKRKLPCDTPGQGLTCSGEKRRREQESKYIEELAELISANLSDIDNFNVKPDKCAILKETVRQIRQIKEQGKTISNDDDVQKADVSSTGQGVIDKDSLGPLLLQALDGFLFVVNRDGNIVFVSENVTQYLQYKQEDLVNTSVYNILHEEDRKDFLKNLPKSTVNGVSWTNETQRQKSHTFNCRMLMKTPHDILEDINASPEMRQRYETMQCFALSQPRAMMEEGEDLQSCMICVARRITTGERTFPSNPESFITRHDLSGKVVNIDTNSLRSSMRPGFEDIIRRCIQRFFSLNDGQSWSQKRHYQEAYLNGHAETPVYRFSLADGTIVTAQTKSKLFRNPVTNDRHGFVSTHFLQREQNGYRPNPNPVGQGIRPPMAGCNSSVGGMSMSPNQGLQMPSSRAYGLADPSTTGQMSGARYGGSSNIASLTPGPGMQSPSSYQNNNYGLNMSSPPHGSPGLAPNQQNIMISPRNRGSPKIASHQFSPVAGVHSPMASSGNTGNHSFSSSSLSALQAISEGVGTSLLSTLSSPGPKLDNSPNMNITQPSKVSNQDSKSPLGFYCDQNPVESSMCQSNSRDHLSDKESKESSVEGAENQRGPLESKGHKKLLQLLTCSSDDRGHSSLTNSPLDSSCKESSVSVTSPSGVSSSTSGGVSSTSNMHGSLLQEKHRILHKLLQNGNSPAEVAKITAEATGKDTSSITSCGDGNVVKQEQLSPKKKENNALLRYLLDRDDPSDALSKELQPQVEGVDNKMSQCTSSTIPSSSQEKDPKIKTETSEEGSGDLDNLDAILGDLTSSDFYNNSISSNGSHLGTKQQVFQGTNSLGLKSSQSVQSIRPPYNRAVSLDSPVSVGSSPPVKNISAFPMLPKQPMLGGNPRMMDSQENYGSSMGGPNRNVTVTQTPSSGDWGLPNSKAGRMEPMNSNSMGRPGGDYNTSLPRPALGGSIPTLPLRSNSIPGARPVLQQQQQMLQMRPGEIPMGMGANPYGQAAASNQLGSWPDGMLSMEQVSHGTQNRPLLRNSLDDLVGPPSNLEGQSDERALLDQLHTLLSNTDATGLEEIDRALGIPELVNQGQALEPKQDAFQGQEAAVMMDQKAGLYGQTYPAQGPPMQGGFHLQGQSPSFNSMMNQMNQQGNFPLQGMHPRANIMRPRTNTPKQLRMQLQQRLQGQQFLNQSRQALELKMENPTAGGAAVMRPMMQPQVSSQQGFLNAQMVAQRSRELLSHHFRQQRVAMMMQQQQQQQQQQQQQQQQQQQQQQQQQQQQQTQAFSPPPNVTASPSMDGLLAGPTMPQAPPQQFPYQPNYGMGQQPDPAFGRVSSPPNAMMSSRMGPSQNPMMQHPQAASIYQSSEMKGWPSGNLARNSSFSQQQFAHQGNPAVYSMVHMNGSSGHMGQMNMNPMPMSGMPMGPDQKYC

SMILES | IC50 [2] [µM] | IC50 [3] [µM] | IC50 [4] [µM] | IC50 [6] [µM] | Activity [9] | Activity [10] | further results
C/C(=N\Nc1nc2ccccc2n1CC1CCN(CC(=O)N[C@H](C(=O)N2C[C@H](O)C[C@H]2C(=O)N[C@@H](C)c2ccc(-c3scnc3C)cc2)C(C)(C)C)CC1)c1ccccn1 | 0.69 | 0.94 | 0.69 | 2.76 | – | – | Activity [1]: 21%; Activity [5]: Non-toxic; Activity [7]: 10%
CC/C(=C(\c1ccccc1)c1ccc(OCCN(C)C)cc1)c1ccccc1 | – | – | – | – | – | – | Activity [8]: inactive
C/C(=N\Nc1nc2ccccc2n1CC1CCN(C(=O)CCCCCCCNc2cccc3c2CN(C2CCC(=O)NC2=O)C3=O)CC1)c1ccccn1 (stereo not drawn) | 0.84 | 0.93 | 1.26 | 5.03 | 39% | 32% | –
C/C(=N\Nc1nc2ccccc2n1CCNC(=O)C1CC2(CCN(c3ccc4c(c3)C(=O)N(C3CCC(=O)NC3=O)C4=O)CC2)C1)c1ccccn1 (stereo not drawn) | 2.94 | 1.06 | 1.11 | 8.63 | inactive | 5% | –
C/C(=N\Nc1nc2ccccc2n1C1CN(C2CCN(c3cccc4c3C(=O)N(C3CCC(=O)N(C)C3=O)C4=O)CC2)C1)c1ccccn1 (stereo not drawn) | – | – | – | – | – | – | Activity [11]: inactive; Activity [12]: inactive
C/C(=N\Nc1nc2ccccc2n1CCNC(=O)CCCCCN[C@H](C(=O)N1C[C@H](O)C[C@H]1C(=O)N[C@@H](C)c1ccc(-c2scnc2C)cc1)C(C)(C)C)c1ccccn1 | 1.59 | 2.75 | 2.53 | 7.14 | – | – | Activity [1]: 8%; Activity [5]: Non-toxic; Activity [7]: 15%
C/C(=N\Nc1nc2ccccc2n1CCNC(=O)CCCCCCCCCCN[C@H](C(=O)N1C[C@H](O)C[C@H]1C(=O)N[C@@H](C)c1ccc(-c2scnc2C)cc1)C(C)(C)C)c1ccccn1 | 0.08 | 0.16 | 0.41 | 1.06 | – | – | Activity [1]: 62%; Activity [5]: Non-toxic; Activity [7]: 62%
CCN(CC)CCOC(=O)c1ccc(N)cc1 [PROCAINE] | – | – | – | – | – | – | half-life [13]: 0.0303 h
C/C(=N\Nc1nc2ccccc2n1CC1CN(c2ccc3c(c2)C(=O)N(C2CCC(=O)NC2=O)C3=O)C1)c1ccccn1 (stereo not drawn) | 0.37 | 0.32 | 0.29 | 3.11 | 15% | inactive | –
C/C(=N\Nc1nc2ccccc2n1CC1CCN(c2ccc3c(c2)C(=O)N(C2CCC(=O)NC2=O)C3=O)CC1)c1ccccn1 (stereo not drawn) | 1.13 | 0.36 | 1.52 | 5.1 | 34% | 28% | –
C/C(=N\Nc1nc2ccccc2n1CC1CN(c2cccc3c2C(=O)N(C2CCC(=O)NC2=O)C3=O)C1)c1ccccn1 (stereo not drawn) | 2.97 | 0.13 | 0.56 | 6.28 | 26% | 15% | –
C/C(=N\Nc1nc2ccccc2n1C)c1ccccn1 | 0.47 | 0.004 | 0.77 | 0.6 | – | – | Activity [14]: 53%; half-life [13]: 2.17 h; remaining at 2 h [15]: > 50%; Activity [16]: 86%
C/C(=N\Nc1nc2ccccc2n1CCNC(=O)CCCCCCCN[C@H](C(=O)N1C[C@H](O)C[C@H]1C(=O)N[C@@H](C)c1ccc(-c2scnc2C)cc1)C(C)(C)C)c1ccccn1 | 0.52 | 0.36 | 0.45 | 1.94 | – | – | Activity [1]: 56%; Activity [5]: Non-toxic; Activity [7]: 38%
C/C(=N\Nc1nc2ccccc2n1CCNC(=O)CN1CCC2(CC1)CCN(c1ccc3c(c1)C(=O)N(C1CCC(=O)NC1=O)C3=O)CC2)c1ccccn1 (stereo not drawn) | 5.59 | 7.2 | 6.99 | 7.99 | inactive | inactive | –
CC/C(=C(\c1ccc(O)cc1)c1ccc(OCCN(C)C)cc1)c1ccccc1 [AFIMOXIFENE] | 0.38 | 18.8 | 8.57 | 26.5 | – | – | –
C/C(=N\Nc1nc2ccccc2n1CCNC(=O)CN1CCC(CN2CCN(c3ccc4c(c3)C(=O)N(C3CCC(=O)NC3=O)C4=O)CC2)CC1)c1ccccn1 (stereo not drawn) | 1.23 | 0.5 | 0.85 | 8.74 | 30% | 23% | –
C[C@]12CC[C@@H]3c4ccc(O)cc4C[C@@H](CCCCCCCCC[S+]([O-])CCCC(F)(F)C(F)(F)F)[C@H]3[C@@H]1CC[C@@H]2O (stereo partly drawn) [FULVESTRANT] | 0.22 | 6.15 | 0.58 | 0.47 | – | – | Activity [14]: inactive; Activity [17]: inactive; Activity [18]: 69.81%; Activity [19]: 12.06%; Activity [20]: 15.07%; Activity [16]: 86%; Activity [21]: 3.06%
C/C(=N\Nc1nc2ccccc2n1CCNC(=O)CCCCCCCCCN[C@H](C(=O)N1C[C@H](O)C[C@H]1C(=O)N[C@@H](C)c1ccc(-c2scnc2C)cc1)C(C)(C)C)c1ccccn1 | 0.09 | 0.13 | 0.35 | 1.11 | – | – | Activity [1]: 63%; Activity [5]: Non-toxic; Activity [7]: 61%
C/C(=N\Nc1nc2ccccc2n1C1CN(C(=O)C2CN(c3cccc4c3C(=O)N(C3CCC(=O)NC3=O)C4=O)C2)C1)c1ccccn1 (stereo not drawn) | 8.24 | 19.1 | 11.8 | 14.8 | 5% | inactive | –
C/C(=N\Nc1nc2ccccc2n1C1CN(c2ccc3c(c2)C(=O)N(C2CCC(=O)NC2=O)C3=O)C1)c1ccccn1 (stereo not drawn) | 0.32 | 0.68 | 0.96 | 4.94 | inactive | 10% | –
C/C(=N\Nc1nc2ccccc2n1CCNC(=O)CCCCCCCCN[C@H](C(=O)N1C[C@H](O)C[C@H]1C(=O)N[C@@H](C)c1ccc(-c2scnc2C)cc1)C(C)(C)C)c1ccccn1 | 0.06 | 0.15 | 0.36 | 0.75 | – | – | Activity [1]: 68%; IC50 [22]: 1.43 µM; Activity [5]: Non-toxic; Activity [7]: 65%
C/C(=N\Nc1nc2ccccc2n1C1CN(c2cccc3c2C(=O)N(C2CCC(=O)NC2=O)C3=O)C1)c1ccccn1 (stereo not drawn) | 9.39 | 0.1 | 0.52 | 3.36 | 16% | 17% | –
C/C(=N\Nc1nc2ccccc2n1C1CN(C(=O)C2CCN(c3cccc4c3C(=O)N(C3CCC(=O)NC3=O)C4=O)CC2)C1)c1ccccn1 (stereo not drawn) | 4.88 | 0.75 | 1.73 | 5.85 | 15% | 29% | –
C/C(=N\Nc1nc2ccccc2n1CCNC(=O)CCCCCCN[C@H](C(=O)N1C[C@H](O)C[C@H]1C(=O)N[C@@H](C)c1ccc(-c2scnc2C)cc1)C(C)(C)C)c1ccccn1 | 0.47 | 0.83 | 1.04 | 3.7 | – | – | Activity [1]: 62%; Activity [5]: Non-toxic; Activity [7]: 43%
